In US20250228835A1, “PYRIDINYLOXYPYRIDINES AND RELATED COMPOUNDS AND THEIR USE IN TREATING MEDICAL CONDITIONS” (Rectify Pharmaceuticals, Inc., priority 2024, published 2025):

Key:
Assay type in all cases: cell-based
ABCC6 WT = molecular target: T1, ABCC6 WT (Homo sapiens, UniProt O95255); test: ABCC6 WT assay: HiBit protein expression; details: HEK-293 cells transiently expressing HiBit-tagged ABCC6 WT; 24 h treatment; top concentration 20 μM; read-out: ABCC6 WT EC50, Emax
T1 construct: expressed in transfected cells; host or cells: HEK-293 (transient, Lipofectamine 2000)
Procedure, shortened: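 HEK-293 cells transiently transfected with HiBit-tagged human ABCC6 WT cDNA, seeded 24 h post-transfection, treated 24 h at 37° C with ten 2-fold doses (top 20 μM final, 0.15% DMSO). HiBit lytic luminescence reports protein expression; Emax and EC50 derived.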

ABCB4 WT = molecular target: T2, ABCB4 WT (Homo sapiens, UniProt P21439); test: ABCB4 WT assay: HiBit protein expression; details: HEK-293 cells stably expressing HiBit-tagged ABCB4 WT; 24 h treatment; top concentration 30 μM; read-out: ABCB4 WT EC50, Emax
T2 construct: expressed in transfected cells
Procedure, shortened: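 HEK-293 cells stably expressing HiBit-tagged human ABCB4 WT, treated 24 h at 37 °C with 11-dose 3-fold dilutions, top final 30 μM in 0.3% DMSO. HiBit lytic reagent luminescence read after 1 h at 25 °C; Emax and EC50 derived.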

ABCA4 P1380L = molecular target: T3, ABCA4 P1380L (Homo sapiens, UniProt P78363, P1380L); test: A4 correction dose-response assay: ABCA4 P1380L HiBit protein expression; details: HEK-293 cells stably expressing HiBit-tagged ABCA4 P1380L; 24 h treatment; top concentration 30 μM; read-out: ABCA4 P1380L EC50, Emax
T3 construct: expressed in transfected cells
Procedure, shortened: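 Cells transfected with HiBit-tagged human ABCA4 P1380L cDNA were treated for 24 h at 37°C with an eleven-point dilution series (top final 30 μM, 0.3% DMSO).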

T2 sequence (P21439 whole entry): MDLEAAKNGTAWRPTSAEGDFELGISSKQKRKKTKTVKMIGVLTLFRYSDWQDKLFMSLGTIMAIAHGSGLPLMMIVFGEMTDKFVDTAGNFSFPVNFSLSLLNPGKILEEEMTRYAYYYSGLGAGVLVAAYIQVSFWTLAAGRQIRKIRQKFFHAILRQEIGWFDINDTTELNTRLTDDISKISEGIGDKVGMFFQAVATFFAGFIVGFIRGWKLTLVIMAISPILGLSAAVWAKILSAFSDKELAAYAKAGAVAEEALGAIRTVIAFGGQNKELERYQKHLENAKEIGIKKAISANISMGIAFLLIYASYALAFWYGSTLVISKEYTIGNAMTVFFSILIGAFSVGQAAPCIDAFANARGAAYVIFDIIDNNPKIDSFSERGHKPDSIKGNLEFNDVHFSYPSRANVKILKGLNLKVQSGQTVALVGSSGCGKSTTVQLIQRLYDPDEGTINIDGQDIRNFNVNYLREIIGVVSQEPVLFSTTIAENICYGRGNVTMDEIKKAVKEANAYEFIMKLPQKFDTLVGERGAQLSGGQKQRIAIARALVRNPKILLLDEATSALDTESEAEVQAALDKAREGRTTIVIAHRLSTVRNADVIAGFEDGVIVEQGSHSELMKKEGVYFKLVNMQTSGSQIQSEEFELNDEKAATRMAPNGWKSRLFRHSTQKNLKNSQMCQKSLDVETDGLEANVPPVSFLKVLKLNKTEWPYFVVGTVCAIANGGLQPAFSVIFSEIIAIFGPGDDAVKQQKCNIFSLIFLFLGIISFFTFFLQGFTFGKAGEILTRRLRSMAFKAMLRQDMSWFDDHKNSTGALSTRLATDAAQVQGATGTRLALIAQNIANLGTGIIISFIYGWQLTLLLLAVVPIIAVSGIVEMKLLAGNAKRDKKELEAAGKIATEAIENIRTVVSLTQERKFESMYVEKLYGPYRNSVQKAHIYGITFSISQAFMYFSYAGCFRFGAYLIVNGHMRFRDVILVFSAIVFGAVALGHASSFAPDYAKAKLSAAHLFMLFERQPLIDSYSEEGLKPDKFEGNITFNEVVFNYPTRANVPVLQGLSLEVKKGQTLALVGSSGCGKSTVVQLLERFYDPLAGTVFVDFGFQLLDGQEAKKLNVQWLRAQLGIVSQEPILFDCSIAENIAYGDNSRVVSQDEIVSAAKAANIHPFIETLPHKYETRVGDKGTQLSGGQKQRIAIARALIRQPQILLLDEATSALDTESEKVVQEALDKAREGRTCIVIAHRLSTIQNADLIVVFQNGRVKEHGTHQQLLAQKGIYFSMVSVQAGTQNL
T3 sequence (P78363 whole entry P1380L): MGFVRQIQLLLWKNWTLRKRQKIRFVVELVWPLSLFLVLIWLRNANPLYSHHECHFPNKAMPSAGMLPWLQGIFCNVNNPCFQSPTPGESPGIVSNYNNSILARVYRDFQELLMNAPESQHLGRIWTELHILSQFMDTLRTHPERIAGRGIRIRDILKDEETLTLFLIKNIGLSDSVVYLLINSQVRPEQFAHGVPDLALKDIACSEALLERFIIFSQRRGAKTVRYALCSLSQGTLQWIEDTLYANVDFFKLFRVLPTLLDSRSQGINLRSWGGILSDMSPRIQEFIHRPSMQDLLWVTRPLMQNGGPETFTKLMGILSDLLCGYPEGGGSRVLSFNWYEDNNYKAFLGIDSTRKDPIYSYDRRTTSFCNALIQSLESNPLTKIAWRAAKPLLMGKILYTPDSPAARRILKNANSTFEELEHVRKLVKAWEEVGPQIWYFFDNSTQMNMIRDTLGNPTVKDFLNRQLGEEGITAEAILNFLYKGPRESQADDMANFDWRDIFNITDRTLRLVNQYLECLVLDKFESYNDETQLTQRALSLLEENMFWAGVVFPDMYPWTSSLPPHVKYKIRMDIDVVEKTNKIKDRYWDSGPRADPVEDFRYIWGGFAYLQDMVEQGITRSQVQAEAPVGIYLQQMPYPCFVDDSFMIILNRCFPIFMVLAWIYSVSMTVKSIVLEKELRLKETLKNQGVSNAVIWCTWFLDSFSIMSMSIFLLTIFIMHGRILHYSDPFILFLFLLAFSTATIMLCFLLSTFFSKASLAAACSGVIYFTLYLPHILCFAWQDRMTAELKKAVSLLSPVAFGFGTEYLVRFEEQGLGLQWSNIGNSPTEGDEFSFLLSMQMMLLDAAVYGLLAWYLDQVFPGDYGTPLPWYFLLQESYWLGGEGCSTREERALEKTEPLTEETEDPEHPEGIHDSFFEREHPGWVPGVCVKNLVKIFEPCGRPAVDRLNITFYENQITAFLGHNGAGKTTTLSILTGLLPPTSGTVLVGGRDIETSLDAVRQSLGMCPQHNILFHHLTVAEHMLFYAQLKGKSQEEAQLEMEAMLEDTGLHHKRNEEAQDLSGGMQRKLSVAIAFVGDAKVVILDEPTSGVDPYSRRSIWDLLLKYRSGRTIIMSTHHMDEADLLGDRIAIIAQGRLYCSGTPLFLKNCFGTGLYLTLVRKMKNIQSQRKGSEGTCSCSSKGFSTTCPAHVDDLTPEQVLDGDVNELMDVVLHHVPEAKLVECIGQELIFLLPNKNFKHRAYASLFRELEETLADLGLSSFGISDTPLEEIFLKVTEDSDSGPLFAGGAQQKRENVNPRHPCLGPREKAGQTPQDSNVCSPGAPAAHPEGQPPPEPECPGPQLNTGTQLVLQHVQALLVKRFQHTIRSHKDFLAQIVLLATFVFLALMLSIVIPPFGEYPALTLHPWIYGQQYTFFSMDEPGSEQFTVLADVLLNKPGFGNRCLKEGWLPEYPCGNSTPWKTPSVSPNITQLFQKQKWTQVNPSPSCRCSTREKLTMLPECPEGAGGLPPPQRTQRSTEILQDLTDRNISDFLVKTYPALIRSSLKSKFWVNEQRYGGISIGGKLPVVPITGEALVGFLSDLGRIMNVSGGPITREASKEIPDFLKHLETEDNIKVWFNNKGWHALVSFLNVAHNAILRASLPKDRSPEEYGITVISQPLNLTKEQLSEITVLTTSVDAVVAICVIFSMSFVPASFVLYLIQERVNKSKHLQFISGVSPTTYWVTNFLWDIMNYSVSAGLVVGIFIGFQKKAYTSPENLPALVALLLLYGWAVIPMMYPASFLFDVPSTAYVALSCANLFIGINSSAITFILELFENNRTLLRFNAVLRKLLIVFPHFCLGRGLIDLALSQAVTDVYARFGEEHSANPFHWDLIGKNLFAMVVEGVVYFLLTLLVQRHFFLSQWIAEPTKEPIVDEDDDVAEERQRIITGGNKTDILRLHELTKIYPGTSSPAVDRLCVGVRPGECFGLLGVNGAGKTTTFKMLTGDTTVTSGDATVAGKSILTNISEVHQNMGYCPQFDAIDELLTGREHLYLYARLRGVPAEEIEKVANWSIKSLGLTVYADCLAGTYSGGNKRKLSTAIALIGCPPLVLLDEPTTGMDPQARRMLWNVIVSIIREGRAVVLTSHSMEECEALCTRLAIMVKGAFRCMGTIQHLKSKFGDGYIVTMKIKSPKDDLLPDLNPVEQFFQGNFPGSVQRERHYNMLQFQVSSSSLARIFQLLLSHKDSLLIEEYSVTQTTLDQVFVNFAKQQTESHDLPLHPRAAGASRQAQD
T1 sequence (O95255 whole entry): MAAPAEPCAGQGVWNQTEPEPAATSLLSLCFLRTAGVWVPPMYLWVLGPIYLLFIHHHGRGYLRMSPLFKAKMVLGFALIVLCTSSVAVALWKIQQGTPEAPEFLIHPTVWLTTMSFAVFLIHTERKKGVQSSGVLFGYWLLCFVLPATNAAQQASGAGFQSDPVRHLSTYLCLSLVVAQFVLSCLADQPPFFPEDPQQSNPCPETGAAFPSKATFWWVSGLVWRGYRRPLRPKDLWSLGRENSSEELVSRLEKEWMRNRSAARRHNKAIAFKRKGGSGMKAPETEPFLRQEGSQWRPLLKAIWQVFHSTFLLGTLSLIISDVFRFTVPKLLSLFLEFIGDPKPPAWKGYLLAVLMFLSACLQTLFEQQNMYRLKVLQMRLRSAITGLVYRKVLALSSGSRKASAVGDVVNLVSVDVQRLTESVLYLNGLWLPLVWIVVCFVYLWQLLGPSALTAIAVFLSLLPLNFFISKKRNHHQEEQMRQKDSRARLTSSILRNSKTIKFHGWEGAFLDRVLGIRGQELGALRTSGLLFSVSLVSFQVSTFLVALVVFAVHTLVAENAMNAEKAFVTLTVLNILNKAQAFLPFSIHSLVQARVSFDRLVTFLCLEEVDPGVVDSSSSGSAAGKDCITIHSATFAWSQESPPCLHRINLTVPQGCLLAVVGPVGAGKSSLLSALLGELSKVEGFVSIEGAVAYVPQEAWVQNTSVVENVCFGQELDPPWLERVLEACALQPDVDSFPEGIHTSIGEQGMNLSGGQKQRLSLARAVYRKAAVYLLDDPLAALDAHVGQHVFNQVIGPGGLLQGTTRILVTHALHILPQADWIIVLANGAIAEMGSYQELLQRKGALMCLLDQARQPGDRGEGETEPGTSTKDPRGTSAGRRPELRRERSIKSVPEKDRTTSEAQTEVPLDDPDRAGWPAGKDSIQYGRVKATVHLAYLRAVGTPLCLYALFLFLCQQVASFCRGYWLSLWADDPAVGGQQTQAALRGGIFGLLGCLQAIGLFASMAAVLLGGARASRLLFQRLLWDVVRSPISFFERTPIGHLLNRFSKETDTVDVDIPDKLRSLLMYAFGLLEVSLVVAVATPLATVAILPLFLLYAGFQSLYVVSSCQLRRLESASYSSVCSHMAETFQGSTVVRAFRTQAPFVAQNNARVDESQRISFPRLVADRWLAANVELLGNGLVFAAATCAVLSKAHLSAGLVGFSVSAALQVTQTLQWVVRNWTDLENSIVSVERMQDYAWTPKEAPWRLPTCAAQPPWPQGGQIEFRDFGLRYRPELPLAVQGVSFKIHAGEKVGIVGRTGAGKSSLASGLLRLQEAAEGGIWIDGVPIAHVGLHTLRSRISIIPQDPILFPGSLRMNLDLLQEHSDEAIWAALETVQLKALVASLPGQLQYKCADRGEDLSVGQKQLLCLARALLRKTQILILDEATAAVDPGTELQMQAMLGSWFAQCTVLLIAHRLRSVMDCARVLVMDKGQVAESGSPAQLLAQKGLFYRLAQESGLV

| SMILES | EC50 (ABCC6 WT) [µM] | EC50 (ABCB4 WT) [µM] | EC50 (ABCA4 P1380L) [µM] |
| --- | --- | --- | --- |
| Cc1cc(C)c(Oc2nc(-c3cncc(Cl)c3)ccc2S(=O)(=O)NC(c2ccccn2)C(F)(F)F)c(C)c1 (single isomer, unassigned) [Compound I-79] | 1 to 10 | ≥ 25 | < 25 |
| Cc1cc(C)c(Oc2nc(-c3cncc(Cl)c3)ccc2S(=O)(=O)NC(c2ccccn2)C(F)(F)F)c(C)c1 (single isomer, unassigned) [Compound I-80] | ≥ 25 | ≥ 25 | > 25 |
| Cc1cc(C)c(Oc2nc(-c3cncc(C(N)=O)c3)ccc2NS(C)(=O)=O)c(C2CC2)n1 [Compound I-1] | < 1 | ≥ 25 | < 1 |
| Cc1cc(C)c(Oc2nc(-c3cn[nH]c3)ccc2NS(C)(=O)=O)c(C2CC2)c1 [Compound I-2] | 10 to 25 | ≥ 25 | > 25 |
| Cc1ccc(Oc2nc(-c3cncc(C#N)c3)ccc2NS(C)(=O)=O)c(C)n1 [Compound I-3] | < 1 | < 1 | < 1 |
| Cc1cc(C)c(Oc2nc(-c3cncc(Cl)c3)ccc2N(C2CC2)S(C)(=O)=O)c(C)c1 [Compound I-42] | 1 to 10 | ≥ 25 | 1 to 10 |
| Cc1cc(C)c(Oc2nc(N3CC4(C3)CN(S(=O)(=O)C3CC3)C4)ccc2NS(C)(=O)=O)c(C)c1 [Compound I-43] | ≥ 25 | ≥ 25 | > 25 |
| Cc1cc(C)c(Oc2nc(N3CCN(S(=O)(=O)C4CC4)CC3)ccc2NS(C)(=O)=O)c(C)c1 [Compound I-44] | 1 to 10 | ≥ 25 | 10 to 25 |
| Cc1cc(C)c(Oc2nc(-c3ccc(C#N)nc3)ccc2NS(C)(=O)=O)c(C)c1 [Compound I-45] | < 1 | ≥ 25 | < 1 |
| Cc1cc(C)c(Oc2nc(-c3cncc(Cl)c3)ccc2NS(C)(=O)=O)c(C)n1 [Compound I-46] | < 1 | < 25 | < 1 |
| Cc1cc(C)c(Oc2nc(N3CCN(C(=O)C4CC4)CC3)ccc2NS(C)(=O)=O)c(C)c1 [Compound I-47] | 1 to 10 | < 1 | > 25 |
| Cc1cc(C)c(Oc2nc(-c3cncc(Cl)c3)ccc2N(C)S(C)(=O)=O)c(C)c1 [Compound I-48] | < 1 | < 1 | > 25 |
| Cc1cc(C)c(Oc2nc(-c3cncc(Cl)c3)ccc2NS(=O)(=O)C2CC2)c(C)c1 [Compound I-49] | < 1 | < 1 | > 25 |
| CC(=O)NC1CN(c2ccc(NS(=O)(=O)c3cccnc3)c(Oc3c(C)cc(C)cc3C3CC3)n2)C1 [Compound I-50] | < 25 | 1 to 10 | > 25 |
| COC1CC(S(=O)(=O)Nc2ccc(-c3cncc(Cl)c3)nc2Oc2c(C)cc(C)cc2C)C1 (stereo not drawn) [Compound I-51] | < 1 | < 1 | < 1 |
| Cc1cc(C)c(Oc2nc(-c3cncc(Cl)c3)ccc2N(C)S(=O)(=O)c2cnn(C)c2)c(C2CC2)c1 [Compound I-52] | < 1 | 1 to 10 | 1 to 10 |
| Cc1cc(C)c(Oc2nc(-c3cncc(Cl)c3)ccc2N(C)S(=O)(=O)c2cccnc2)c(C2CC2)c1 [Compound I-53] | 1 to 10 | ≥ 25 | 1 to 10 |
| Cc1cc(C)c(Oc2nc(-c3cncc(Cl)c3)ccc2NS(=O)(=O)c2cccnc2)c(C2CC2)c1 [Compound I-54] | < 1 | ≥ 25 | < 25 |
| Cc1cc(C)c(Oc2nc(-c3cncc(Cl)c3)ccc2NS(C)(=O)=O)c(C)c1 [Compound I-55] | < 1 | ≥ 25 | > 25 |
| Cc1cc(C)c(Oc2cc(-c3cncc(Cl)c3)ncc2NS(C)(=O)=O)c(C)c1 [Compound I-56] | < 1 | ≥ 25 | > 25 |
| Cc1cc(C)c(Oc2nc(-c3cncc(Cl)c3)ccc2NS(C)(=O)=O)c(C2CC2)c1 [Compound I-57] | < 1 | < 25 | 1 to 10 |
| Cc1cc(C)c(Oc2nc(-c3cncc(Cl)c3)ccc2NS(=O)(=O)c2cnn(C)c2)c(C2CC2)c1 [Compound I-58] | < 25 | ≥ 25 | > 25 |
| Cc1cc(C)c(Oc2cc(-c3cncc(Cl)c3)cnc2N(C)S(=O)(=O)c2cnn(C)c2)c(C)c1 [Compound I-59] | ≥ 25 | ≥ 25 | 1 to 10 |
| Cc1cc(C)c(Oc2cc(-c3cncc(Cl)c3)cnc2NS(C)(=O)=O)c(C)c1 [Compound I-60] | 1 to 10 | ≥ 25 | < 25 |

| SMILES | EC50 (ABCC6 WT) [µM] | EC50 (ABCB4 WT) [µM] | EC50 (ABCA4 P1380L) [µM] |
| --- | --- | --- | --- |
| Cc1cc(C)c(Oc2cc(-c3cncc(Cl)c3)cnc2NS(=O)(=O)c2cnn(C)c2)c(C)c1 [Compound I-61] | 1 to 10 | ≥ 25 | > 25 |
| Cc1cc(C)c(Oc2nc(-c3cncc(Cl)c3)ccc2NS(=O)(=O)Cc2ccccn2)c(C)c1 [Compound I-62] | ≥ 25 | ≥ 25 | > 25 |
| COc1ccc2nc[nH]c2c1S(=O)(=O)Nc1ccc(-c2cncc(Cl)c2)nc1Oc1c(C)cc(C)cc1C [Compound I-63] | < 1 | ≥ 25 | 10 to 25 |
| Cc1cc(C)c(Oc2nc(-c3cncc(Cl)c3)ccc2N(C)S(=O)(=O)Cc2ccccc2)c(C)c1 [Compound I-64] | < 25 | < 25 | 1 to 10 |
| Cc1cc(C)c(Oc2nc(-c3cncc(Cl)c3)ccc2NS(=O)(=O)Cc2ccccc2)c(C)c1 [Compound I-65] | ≥ 25 | ≥ 25 | > 25 |
| Cc1cc(C)c(Oc2nc(-c3cncc(Cl)c3)ccc2N2CCCCS2(=O)=O)c(C)c1 [Compound I-66] | 1 to 10 | ≥ 25 | > 25 |
| Cc1cc(C)c(Oc2nc(-c3cncc(Cl)c3)ccc2N2CCCS2(=O)=O)c(C)c1 [Compound I-67] | 1 to 10 | 1 to 10 | > 25 |
| Cc1cc(C)c(Oc2nc(-c3cncc(Cl)c3)ccc2NS(=O)(=O)C(C)(C)C)c(C)c1 [Compound I-68] | ≥ 25 | ≥ 25 | > 25 |
| Cc1cc(C)c(Oc2nc(-c3cncc(Cl)c3)ccc2N(C)S(=O)(=O)c2cccnc2)c(C)c1 [Compound I-69] | < 1 | < 25 | 1 to 10 |
| Cc1cc(C)c(Oc2nc(-c3cncc(Cl)c3)ccc2N(C)S(=O)(=O)c2cnn(C)c2)c(C)c1 [Compound I-70] | < 1 | ≥ 25 | > 25 |
| Cc1cc(C)c(Oc2nc(-c3cncc(Cl)c3)ccc2NS(=O)(=O)c2cccnc2)c(C)c1 [Compound I-71] | < 1 | ≥ 25 | > 25 |
| Cc1cc(C)c(Oc2nc(-c3cncc(Cl)c3)ccc2NS(=O)(=O)c2cnn(C)c2)c(C)c1 [Compound I-72] | 1 to 10 | ≥ 25 | > 25 |
| CNS(=O)(=O)c1ccc(N2CCN(C(=O)C3CC3)CC2)nc1Oc1c(C)cc(C)cc1C [Compound I-73] | 1 to 10 | < 1 | < 1 |
| COC1CC(NS(=O)(=O)c2ccc(-c3cncc(Cl)c3)nc2Oc2c(C)cc(C)cc2C2CC2)C1 (stereo not drawn) [Compound I-74] | 1 to 10 | 1 to 10 | 1 to 10 |
| Cc1cc(C)c(Oc2nc(-c3cncc(Cl)c3)ccc2S(=O)(=O)Nc2cnn(C)c2)c(C2CC2)c1 [Compound I-75] | < 25 | 1 to 10 | 1 to 10 |
| Cc1cc(C)c(Oc2nc(-c3cncc(Cl)c3)ccc2S(=O)(=O)NCc2ccccn2)c(C2CC2)c1 [Compound I-76] | ≥ 25 | 1 to 10 | > 25 |
| CNS(=O)(=O)c1ccc(-c2cncc(Cl)c2)nc1Oc1c(C)cc(C)cc1C1CC1 [Compound I-77] | < 1 | 1 to 10 | < 25 |
| COC1CC(NS(=O)(=O)c2ccc(-c3cncc(Cl)c3)nc2Oc2c(C)cc(C)cc2C)C1 (stereo not drawn) [Compound I-78] | < 1 | < 25 | 1 to 10 |
| Cc1cc(C)c(Oc2nc(-c3cncc(Cl)c3)ccc2S(=O)(=O)N[C@H](c2ccccc2)C(F)(F)F)c(C)c1 [Compound I-81] | 1 to 10 | < 25 | 1 to 10 |
| Cc1cc(C)c(Oc2nc(-c3cncc(Cl)c3)ccc2S(=O)(=O)N[C@@H](c2ccccc2)C(F)(F)F)c(C)c1 [Compound I-83] | 1 to 10 | ≥ 25 | 1 to 10 |
| CNS(=O)(=O)c1cnc(-c2cncc(Cl)c2)cc1Oc1c(C)cc(C)cc1C [Compound I-84] | ≥ 25 | ≥ 25 | < 25 |
| Cc1cc(C)c(Oc2nc(-c3cncc(Cl)c3)ccc2S(=O)(=O)N(C)Cc2ccccc2)c(C)c1 [Compound I-85] | ≥ 25 | < 25 | > 25 |
| Cc1cc(C)c(Oc2nc(-c3cncc(Cl)c3)ccc2S(=O)(=O)NCc2ccccn2)c(C)c1 [Compound I-86] | 1 to 10 | 1 to 10 | < 25 |
